# Measured values published in patent publication US20260274892A1, “MACROCYCLIC BROAD SPECTRUM ANTIBIOTICS” (RQx Pharmaceuticals, Inc., priority 2017, published 2026).
# What was measured:
# [1] = test system: Methicillin Resistant Staphylococcus aureus strain USA 200; test: Minimum inhibitory concentration (MIC), CLSI broth micro-dilution, S. aureus; assay type: cell-based; details: Staphylococcus aureus, MRSA / USA200; Table 6; MRSA USA 200; cation adjusted Mueller Hinton Broth + 0.002% Tween-80; 35° C., 22 hours
# How it was run: (§1)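 Colonies grown 20 h at 35° C on Trypticase Soy agar (MRSA) or Luria agar (E. coli) were suspended in cation-adjusted Mueller Hinton broth with 0.002% Tween-80. Suspensions were added at OD600 0.0005 to 10-point twofold compound dilutions, then incubated 22 h at 35° C.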
# [2] = test system: Escherichia coli ATCC 25922; test: Minimum inhibitory concentration (MIC), CLSI broth micro-dilution, E. coli; assay type: cell-based; details: Escherichia coli, ATCC25922, 22 h, Table 6, cation adjusted Mueller Hinton Broth + 0.002% Tween-80, 35° C.
# How it was run: as §1
SMILES,MIC [1],MIC [2]
"Cc1nc(C#Cc2ccc(C(C)(C)C)cc2)nc(C)c1C(=O)N[C@@H](CCN)C(=O)N(C)[C@@H]1C(=O)N[C@@H](C)C(=O)N[C@H](C(=O)NCC#N)Cc2ccc(OCCN)c(c2)-c2cc1ccc2OCCN (racemic) [Compound 311, rac-(8S,11S,14S)-3,18-bis(2-aminoethoxy)-N-(cyanomethyl)-11-methyl-14-[methyl-[rac-(2S)-4-amino-2-[[2-[2-(4-tert-butylphenyl)ethynyl]-4,6-dimethyl-pyrimidine-5-carbonyl]amino]butanoyl]amino]-10,13-dioxo-9,12-diazatricyclo[13.3.1.12,6]icosa-1(18),2(20),3,5,15(19),16-hexaene-8-carboxamide]",1 µM,8.2 µM
"CC(C)=Cc1ccc(C#Cc2nc(C)c(C(=O)N[C@@H](CCN)C(=O)N(C)[C@@H]3C(=O)N[C@@H](C)C(=O)N[C@H](C(=O)NCC#N)Cc4ccc(OCCN)c(c4)-c4cc3ccc4OCCN)c(C)n2)cc1 (racemic) [Compound 313, rac-(8S,11S,14S)-3,18-bis(2-aminoethoxy)-N-(cyanomethyl)-11-methyl-14-[methyl-[rac-(2S)-4-amino-2-[[4,6-dimethyl-2-[2-[4-(2-methylprop-1-enyl)phenyl]ethynyl]pyrimidine-5-carbonyl]amino]butanoyl]amino]-10,13-dioxo-9,12-diazatricyclo[13.3.1.12,6]icosa-1(18),2(20),3,5,15(19),16-hexaene-8-carboxamide]",0.016 µM,0.13 µM
"Cc1nc(N2CCC(C(C)(C)C)CC2)nc(C)c1C(=O)N[C@@H](CCN)C(=O)N(C)[C@@H]1C(=O)N[C@@H](C)C(=O)N[C@H](C(=O)NCC#N)Cc2ccc(OCCN)c(c2)-c2cc1ccc2OCCN (racemic) [Compound 315, rac-(8S,11S,14S)-3,18-bis(2-aminoethoxy)-N-(cyanomethyl)-11-methyl-14-[methyl-[rac-(2S)-4-amino-2-[[2-(4-tert-butyl-1-piperidyl)-4,6-dimethyl-pyrimidine-5-carbonyl]amino]butanoyl]amino]-10,13-dioxo-9,12-diazatricyclo[13.3.1.12,6]icosa-1(18),2(20),3,5,15(19),16-hexaene-8-carboxamide]",0.016 µM,0.25 µM
"CCCCCOC1CCN(c2nc(C)c(C(=O)N[C@@H](CCN)C(=O)N(C)[C@@H]3C(=O)N[C@@H](C)C(=O)N[C@H](C(=O)NCC#N)Cc4ccc(OCCN)c(c4)-c4cc3ccc4OCCN)c(C)n2)CC1 (racemic) [Compound 317, rac-(8S,11S,14S)-3,18-bis(2-aminoethoxy)-N-(cyanomethyl)-11-methyl-14-[methyl-[rac-(2S)-4-amino-2-[[4,6-dimethyl-2-(4-pentoxy-1-piperidyl)pyrimidine-5-carbonyl]amino]butanoyl]amino]-10,13-dioxo-9,12-diazatricyclo[13.3.1.12,6]icosa-1(18),2(20),3,5,15(19),16-hexaene-8-carboxamide]",0.047 µM,0.5 µM
"Cc1nc(-c2ccc(N3CCC(F)(F)CC3)cc2)nc(C)c1C(=O)N[C@@H](CCN)C(=O)N(C)[C@@H]1C(=O)N[C@@H](C)C(=O)N[C@H](C(=O)NCC#N)Cc2ccc(OCCN)c(c2)-c2cc1ccc2OCCN (racemic) [Compound 322, rac-(8S,11S,14S)-3,18-bis(2-aminoethoxy)-N-(cyanomethyl)-11-methyl-14-[methyl-[rac-(2S)-4-amino-2-[[2-[4-(4,4-difluoro-1-piperidyl)phenyl]-4,6-dimethyl-pyrimidine-5-carbonyl]amino]butanoyl]amino]-10,13-dioxo-9,12-diazatricyclo[13.3.1.12,6]icosa-1(18),2(20),3,5,15(19),16-hexaene-8-carboxamide]",0.15 µM,0.6 µM
"Cc1nc(-c2ccc(N3CCC3)cc2)nc(C)c1C(=O)N[C@@H](CCN)C(=O)N(C)[C@@H]1C(=O)N[C@@H](C)C(=O)N[C@H](C(=O)NCC#N)Cc2ccc(OCCN)c(c2)-c2cc1ccc2OCCN (racemic) [Compound 323, rac-(8S,11S,14S)-3,18-bis(2-aminoethoxy)-N-(cyanomethyl)-11-methyl-14-[methyl-[rac-(2S)-4-amino-2-[[2-[4-(azetidin-1-yl)phenyl]-4,6-dimethyl-pyrimidine-5-carbonyl]amino]butanoyl]amino]-10,13-dioxo-9,12-diazatricyclo[13.3.1.12,6]icosa-1(18),2(20),3,5,15(19),16-hexaene-8-carboxamide]",0.38 µM,1 µM
"Cc1nc(-c2ccc(N3CCCCCC3)cc2)nc(C)c1C(=O)N[C@@H](CCN)C(=O)N(C)[C@@H]1C(=O)N[C@@H](C)C(=O)N[C@H](C(=O)NCC#N)Cc2ccc(OCCN)c(c2)-c2cc1ccc2OCCN (racemic) [Compound 325, rac-(8S,11S,14S)-3,18-bis(2-aminoethoxy)-N-(cyanomethyl)-11-methyl-14-[methyl-[rac-(2S)-4-amino-2-[[2-[4-(azepan-1-yl)phenyl]-4,6-dimethyl-pyrimidine-5-carbonyl]amino]butanoyl]amino]-10,13-dioxo-9,12-diazatricyclo[13.3.1.12,6]icosa-1(18),2(20),3,5,15(19),16-hexaene-8-carboxamide]",0.016 µM,0.13 µM

# Now from value to compound:
MIC [1],MIC [2],SMILES
0.27 µM,1.1 µM,"Cc1nc(C#Cc2ccccc2)nc(C)c1C(=O)N[C@@H](CCN)C(=O)N(C)[C@@H]1C(=O)N[C@@H](C)C(=O)N[C@H](C(=O)NCC#N)Cc2ccc(OCCN)c(c2)-c2cc1ccc2OCCN (racemic) [Compound 309, rac-(8S,11S,14S)-3,18-bis(2-aminoethoxy)-N-(cyanomethyl)-11-methyl-14-[methyl-[rac-(2S)-4-amino-2-[[4,6-dimethyl-2-(2-phenylethynyl)pyrimidine-5-carbonyl]amino]butanoyl]amino]-10,13-dioxo-9,12-diazatricyclo[13.3.1.12,6]icosa-1(18),2(20),3,5,15(19),16-hexaene-8-carboxamide]"
0.38 µM,1.5 µM,"Cc1nc(N2CC(C(C)(C)C)C2)nc(C)c1C(=O)N[C@@H](CCN)C(=O)N(C)[C@@H]1C(=O)N[C@@H](C)C(=O)N[C@H](C(=O)NCC#N)Cc2ccc(OCCN)c(c2)-c2cc1ccc2OCCN (racemic) [Compound 316, rac-(8S,11S,14S)-3,18-bis(2-aminoethoxy)-N-(cyanomethyl)-11-methyl-14-[methyl-[rac-(2S)-4-amino-2-[[2-(3-tert-butylazetidin-1-yl)-4,6-dimethyl-pyrimidine-5-carbonyl]amino]butanoyl]amino]-10,13-dioxo-9,12-diazatricyclo[13.3.1.12,6]icosa-1(18),2(20),3,5,15(19),16-hexaene-8-carboxamide]"
1 µM,8 µM,"Cc1nc(-n2ccc(C(C)(C)C)cc2=O)nc(C)c1C(=O)N[C@@H](CCN)C(=O)N(C)[C@@H]1C(=O)N[C@@H](C)C(=O)N[C@H](C(=O)NCC#N)Cc2ccc(OCCN)c(c2)-c2cc1ccc2OCCN (racemic) [Compound 319, rac-(8S,11S,14S)-3,18-bis(2-aminoethoxy)-N-(cyanomethyl)-11-methyl-14-[methyl-[rac-(2S)-4-amino-2-[[2-(4-tert-butyl-2-oxo-1-pyridyl)-4,6-dimethyl-pyrimidine-5-carbonyl]amino]butanoyl]amino]-10,13-dioxo-9,12-diazatricyclo[13.3.1.12,6]icosa-1(18),2(20),3,5,15(19),16-hexaene-8-carboxamide]"
0.016 µM,0.19 µM,"Cc1nc(-c2ccc(N3CCC(C(C)(C)C)CC3)cc2)nc(C)c1C(=O)N[C@@H](CCN)C(=O)N(C)[C@@H]1C(=O)N[C@@H](C)C(=O)N[C@H](C(=O)NCC#N)Cc2ccc(OCCN)c(c2)-c2cc1ccc2OCCN (racemic) [Compound 320, rac-(8S,11S,14S)-3,18-bis(2-aminoethoxy)-N-(cyanomethyl)-11-methyl-14-[methyl-[rac-(2S)-4-amino-2-[[2-[4-(4-tert-butyl-1-piperidyl)phenyl]-4,6-dimethyl-pyrimidine-5-carbonyl]amino]butanoyl]amino]-10,13-dioxo-9,12-diazatricyclo[13.3.1.12,6]icosa-1(18),2(20),3,5,15(19),16-hexaene-8-carboxamide]"
0.047 µM,0.38 µM,"Cc1nc(-c2ccc(N3CCCC3)cc2)nc(C)c1C(=O)N[C@@H](CCN)C(=O)N(C)[C@@H]1C(=O)N[C@@H](C)C(=O)N[C@H](C(=O)NCC#N)Cc2ccc(OCCN)c(c2)-c2cc1ccc2OCCN (racemic) [Compound 321, rac-(8S,11S,14S)-3,18-bis(2-aminoethoxy)-N-(cyanomethyl)-11-methyl-14-[methyl-[rac-(2S)-4-amino-2-[[4,6-dimethyl-2-(4-pyrrolidin-1-ylphenyl)pyrimidine-5-carbonyl]amino]butanoyl]amino]-10,13-dioxo-9,12-diazatricyclo[13.3.1.12,6]icosa-1(18),2(20),3,5,15(19),16-hexaene-8-carboxamide]"
0.047 µM,0.13 µM,"Cc1nc(-c2ccc(N3CCCCC3)cc2)nc(C)c1C(=O)N[C@@H](CCN)C(=O)N(C)[C@@H]1C(=O)N[C@@H](C)C(=O)N[C@H](C(=O)NCC#N)Cc2ccc(OCCN)c(c2)-c2cc1ccc2OCCN (racemic) [Compound 324, rac-(8S,11S,14S)-3,18-bis(2-aminoethoxy)-N-(cyanomethyl)-11-methyl-14-[methyl-[rac-(2S)-4-amino-2-[[4,6-dimethyl-2-[4-(1-piperidyl)phenyl]pyrimidine-5-carbonyl]amino]butanoyl]amino]-10,13-dioxo-9,12-diazatricyclo[13.3.1.12,6]icosa-1(18),2(20),3,5,15(19),16-hexaene-8-carboxamide]"
